Experimental data as given in patent publication US20180238860A1, “INDIVIDUAL METHOD PREDICTIVE OF THE DNA-BREAKING GENOTOXIC EFFECTS OF CHEMICAL OR BIOCHEMICAL AGENTS” (priority 2015, published 2018).

Assays:
08HNG cells [1] = assay: pH2AX foci 24 h after contacting, 08HNG; assay type: cell-based, human
Protocol: (§1) In one embodiment, on receipt, the tissue sample (typically the biopsy) is established in the form of an amplifiable cell line without a viral or chemical transformation agent according to an ancillary procedure well known to culture laboratories, as underlined by the publication of Elkind et al. “The radiobiology of cultured mammalian cell”, Gordon and Breach (1967). Once the number of cells is sufficient (typically after 1 to 3 weeks), the first experiments are carried out using the process according to the invention. A cell sample is prepared: The cells are inoculated on glass coverslips in Petri dishes. A portion of these coverslips are contaminated with metals or pesticides or any other DNA-breaking chemical or biochemical agent at different concentrations. A further portion is not contaminated; it represents the spontaneous state. During contamination, the cells remain in the culture incubator at 37° C.
For the contaminated cells, characteristics are acquired corresponding to the state after an incubation time with the DNA-breaking chemical or biochemical agent. Said characteristics are represented by foci corresponding to the marker pH2AX. The cells on glass coverslips are then fixed, lysed and hybridized. The following procedure, known per se (Bodgi et al, “A single formula to describe radiation-induced protein relocalization: towards a mathematical definition of individual radiosensitivity”, J Theor Biol. 21 p 333:135-45.2013):
the cells are fixed in 3% paraformaldehyde and 2% sucrose for 15 minutes at ambient temperature and permeabilized in 20 mM HEPES buffer solution (4-(2-hydroxyethyl)-1-piperazine ethane sulfonic acid) at pH 7.4, 50 mM NaCl, 3 mM MgCl2, 300 mM sucrose, 0.5% Triton X-100 (a non-ionic surfactant having the formula t-Oct-C6H4-(OCH2CH2)×OH where x=9-10, CAS No. 9002-93-1, supplied for example by Sigma Aldrich) for 3 minutes. The glass coverslips are then washed in phosphate buffer saline (known as the acronym PBS) before immunological staining. The incubation took place for 40 min at 37° C. in PBS supplemented with 2% bovine serum albumin (known as the acronym BSA or fraction V, supplied for example by Sigma Aldrich) and was followed by a wash with PBS. Anti-pH2AX primary antibodies are used at a concentration of 1:800. […]
The results are acquired using these coverslips on an immunofluorescence microscope (Olympus model for example). The reading may be direct (typically by counting the foci on at least 50 cells in G0/G1 for each point) or using dedicated image analysis software, or on an automated microscope; preferably the software or automated microscope methods are calibrated with manual determinations. […]

08HNG cells [2] = assay: Micronuclei per 100 cells 24 h after contacting, 08HNG; assay type: cell-based, human
Protocol: as §1
the cells are fixed in 3% paraformaldehyde and 2% sucrose for 15 minutes at ambient temperature and permeabilized in 20 mM HEPES buffer solution (4-(2-hydroxyethyl)-1-piperazine ethane sulfonic acid) at pH 7.4, 50 mM NaCl, 3 mM MgCl2, 300 mM sucrose, 0.5% Triton X-100 (a non-ionic surfactant having the formula t-Oct-C6H4-(OCH2CH2)×OH where x=9-10, CAS No. 9002-93-1, supplied for example by Sigma Aldrich) for 3 minutes. The glass coverslips are then washed in phosphate buffer saline (known as the acronym PBS) before immunological staining. The incubation took place for 40 min at 37° C. in PBS supplemented with 2% bovine serum albumin (known as the acronym BSA or fraction V, supplied for example by Sigma Aldrich) and was followed by a wash with PBS. Anti-pH2AX primary antibodies are used at a concentration of 1:800. The incubations with anti-mouse FITC or anti-rabbit TRITC secondary antibodies (1:100, supplied by Sigma Aldrich) were performed at 37° C. in 2% BSA for 20 minutes. Glass coverslips were treated with Vectashield™ containing DAPI (4,6-Diamidino-2-phenylindole) to label the nucleus. Staining with DAPI also makes it possible, indirectly, to determine the number of cells in phase G1 (nuclei with homogenous DAPI staining), in phase S (nuclei with numerous pH2AX foci), in phase G2 (nuclei with heterogeneous DAPI staining) and metaphases (visible chromosomes).
Counterstaining with DAPI (a DNA marker known to those skilled in the art) makes it possible to locate the nucleus to situate the cytoplasmic or nuclear location to quantify the micronuclei, which are complementary cell markers to the data on the foci.
The tables hereinafter summarize the results of numerous experiments which were carried out as described in the “Detailed description” section above. […]

Structure (SMILES): c1ccc2[nH]c(-c3cscn3)nc2c1 [Thiobendazole]
- pH2AX (08HNG cells [1]; 0.3 μM): 1.8 foci
- pH2AX (08HNG cells [1]; 1 μM): 2 foci
- pH2AX (08HNG cells [1]; 3 μM): 4.3 foci
- pH2AX (08HNG cells [1]; 10 μM): 6 foci
- Micronuclei (08HNG cells [2]; 0.3 μM): 2 per 100 cells
- Micronuclei (08HNG cells [2]; 1 μM): 4 per 100 cells
- Micronuclei (08HNG cells [2]; 3 μM): 10 per 100 cells
- Micronuclei (08HNG cells [2]; 10 μM): 10 per 100 cells
